Data reported in patent US20090016956A1, “Labeled Macrophages and Methods of Use Thereof” (priority 2007, published 2009).

System: reverse cholesterol transport pathway (RCTP)
Assay: modulation of the reverse cholesterol transport pathway (RCTP); modified in vivo assay (MIVA), release of labeled cholesterol from loaded cells
Details: general statement in the description; the data are only in FIGS. 1-8, values not given
Method: In another embodiment, the invention includes a method of loading of cells, (e.g., macrophages in culture) with labeled cholesterol, e.g., radiolabeled cholesterol, by exposing the cells to autologous red cell membrane fragments which have been equilibrated with labeled cholesterol. The exposed cells phagocytose the red cell membrane fragments and internalize and store the labeled cholesterol becoming, in effect, foam cells. These ‘loaded’ cells are then administered, e.g., intraveneously injected, into a subject and allowed to distribute throughout the subject and settle within its organs (e.g., heart, lung, kidney, liver). A base level of cholesterol release is observed. After an appropriate length of time, the subject is treated with the test agent, or compound of interest and the release of label (e.g., labeled cholesterol) is measured and/or monitored as a function of time, dose, or dosing regimen. The appropriate length of time may be approximately twenty four hours, although it may also be longer or shorter, if so desired.
Stimulation of cholesterol release from the introduced loaded cells results in a transient increase in the amount of circulating label over baseline. Measurement of the kinetics of label release is carried out by direct analysis of samples of circulating whole blood, plasma, serum, feces, urine, saliva and/or cerebral spinal fluid. […]

Compound: CCCCCCCCCC[Si](C)(C)CCC(=O)NC(Cc1ccc(C)cc1)c1ccccc1 (stereo not shown) [Sandoz 58-035]
- effectiveness in modulation of the RCTP: effective in modulation of the RCTP
